Laboratory results published in article PMC10380083, “Synthesis of Prostate-Specific Membrane Antigen-Targeted Bimodal Conjugates of Cytotoxic Agents and Antiandrogens and Their Comparative Assessment with Monoconjugates” (International Journal of Molecular Sciences, 2023).
Like-named read-outs stand apart in the source and are kept apart here. *1 amine or outer side, *2 acyl side, *3 side chain or, on linkers, in order; H or OH if unused. Where a SMILES comes first, the peptide text is derived from it. [ ]: non-standard residue; d: D form. The star is where a group is joined. GluureaLys(ε-3-ClBenzyl) = O=C(O)CC[C@H](NC(=O)N[C@@H](CCCCN(Cc1cccc(Cl)c1)*)C(=O)O)C(=O)O; X3 = CC1(C)C(=O)N(c2ccc(C#N)c(C(F)(F)F)c2)C(=S)N1c1ccc(C(=O)*)c(F)c1; Dolaproine = CO[C@@H]([C@@H]1CCCN1)[C@@H](C)C(=O)O; Dil = CC[C@H](C)[C@H](NC)[C@@H](CC(=O)O)OC; X2 = O=C(CCCc1cn(CCCN[*:1])nn1)[*:2]; PABC = O=C(OCc1ccc(N[*:1])cc1)[*:2]; X1 = C[C@@H](N*)[C@@H](O)c1ccccc1; Cit = NC(=O)NCCC[C@H](N)C(=O)O; Suc = O=C(CCC(=O)[*:2])[*:1]; NMeV = CN[C@H](C(=O)O)C(C)C; Ahx = NCCCCCC(=O)O

Legend:
[1] = Body weight, general condition and mortality in the antitumor efficacy study; details: i.v. 132.3 nM/kg x3
[2] = tested on: PC-3 prostate adenocarcinoma xenograft; details: PC-3 xenograft; for tumor volume V±m: i.v. triple injection, single dose 132.3 nM/kg; for Tumor growth inhibition: i.v. 132.3 nM/kg three times
[3] = tested on: 22Rv1 human prostate carcinoma xenograft; details: 22Rv1 xenograft; for tumor volume V±m: i.v. triple injection, single dose 132.3 nM/kg; for Tumor growth inhibition: i.v. 132.3 nM/kg three times
[4] = 7 day after tumor implantation (1st injection)
[5] = 12 day after tumor implantation (2nd injection)
[6] = 33 day after tumor implantation
[7] = 37 day after tumor implantation
[8] = days after the start of treatment: 1
[9] = days after the start of treatment: 5
[10] = days after the start of treatment: 10
[11] = days after the start of treatment: 16
[12] = days after the start of treatment: 20

CC[C@H](C)[C@@H]([C@@H](CC(=O)N1CCC[C@H]1[C@H](OC)[C@@H](C)C(=O)N[C@H](C)[C@@H](O)c1ccccc1)OC)N(C)C(=O)[C@@H](NC(=O)[C@H](C(C)C)N(C)C(=O)OCc1ccc(NC(=O)[C@H](CCCNC(N)=O)NC(=O)[C@@H](NC(=O)CCCc2cn(CCCNC(=O)[C@H](CCCCNC(=O)c3ccc(N4C(=S)N(c5ccc(C#N)c(C(F)(F)F)c5)C(=O)C4(C)C)cc3F)NC(=O)[C@H](Cc3ccc(O)cc3)NC(=O)[C@H](Cc3ccccc3)NC(=O)CCC(=O)NCCCCCC(=O)N(CCCC[C@H](NC(=O)N[C@@H](CCC(=O)O)C(=O)O)C(=O)O)Cc3cccc(Cl)c3)nn2)C(C)C)cc1)C(C)C [compound 15] ({GluureaLys(ε-3-ClBenzyl)-Ahx-Suc}-FYK(X3)[X2]V[Cit][PABC][NMeV]V[Dil][Dolaproine]-X1)
body weight, mass ± error ([1]; 22Rv1 xenograft mice, 7 day after tumor implantation (1st injection)): 25.2 ± 1.2 g | body weight, mass ± error ([1]; 22Rv1 xenograft mice, 12 day after tumor implantation (2nd injection)): 25.0 ± 1.2 g | body weight, mass ± error ([1]; 22Rv1 xenograft mice, 17 day after tumor implantation (3rd injection)): 25.0 ± 1.2 g | body weight, mass ± error ([1]; 22Rv1 xenograft mice, 22 day after tumor implantation): 25.2 ± 1.3 g | body weight, mass ± error ([1]; 22Rv1 xenograft mice, 27 day after tumor implantation): 25.1 ± 1.3 g | body weight, mass ± error ([1]; 22Rv1 xenograft mice, 33 day after tumor implantation): 25.2 ± 1.3 g | body weight, mass ± error ([1]; 22Rv1 xenograft mice, 37 day after tumor implantation): 25.5 ± 1.5 g | body weight, mass ± error ([1]; PC-3 xenograft mice, 7 day after tumor implantation (1st injection)): 23.9 ± 2.1 g | body weight, mass ± error ([1]; PC-3 xenograft mice, 12 day after tumor implantation (2nd injection)): 23.8 ± 2.1 g | body weight, mass ± error ([1]; PC-3 xenograft mice, 17 day after tumor implantation (3rd injection)): 24.0 ± 2.2 g | body weight, mass ± error ([1]; PC-3 xenograft mice, 22 day after tumor implantation): 24.4 ± 2.3 g | body weight, mass ± error ([1]; PC-3 xenograft mice, 27 day after tumor implantation): 24.8 ± 2.1 g | body weight, mass ± error ([1]; PC-3 xenograft mice, 33 day after tumor implantation): 24.9 ± 1.8 g | body weight, mass ± error ([1]; PC-3 xenograft mice, 37 day after tumor implantation): 25.1 ± 1.9 g | tumor volume V±m [2, 4]: 83.1±6.8 mm3 | tumor volume V±m [2, 5]: 117.6 mm3 | tumor volume V±m ([2]; 27 day after tumor implantation): 534.3 mm3 | tumor volume V±m [2, 6]: 819.8 mm3 | tumor volume V±m [2, 7]: 1318.4 mm3 | Tumor growth inhibition [2, 8]: 20.5% | Tumor growth inhibition [2, 9]: 18.5% | Tumor growth inhibition [2, 10]: 36.5% | Tumor growth inhibition [2, 11]: 39.7% | Tumor growth inhibition [2, 12]: 51.7% | TGI, did not exceed ([2]; i.v. 132.3 nM/kg three times at five-day intervals, male Balb/c nude mice): ≤ 51.7% | tumor volume V±m [3, 4]: 73.3±8.8 mm3 | tumor volume V±m [3, 5]: 64.7±15.3 mm3 | tumor volume V±m ([3]; 17 day after tumor implantation (3rd injection)): 76.1±46.5 mm3 | tumor volume V±m ([3]; 22 day after tumor implantation): 171.6 mm3 | tumor volume V±m [3, 6]: 650.1 mm3 | tumor volume V±m [3, 7]: 988.7 mm3 | Tumor growth inhibition [3, 8]: 64.5% | Tumor growth inhibition [3, 9]: 67.6% | Tumor growth inhibition [3, 10]: 71.3% | Tumor growth inhibition [3, 11]: 67.9% | Tumor growth inhibition [3, 12]: 65.4%
